Columns and labels:
HepG2 cells = assay: Hepatotoxicity assay, HepG2 cell viability (PrestoBlue, ToxiLight); type: cell-based, human; details: concentrations up to 50 μM; viability assay and ToxiLight
Procedure: (§1) Hepatotoxiticy assay was conducted according to our previously described procedures.[42]Cell culture and treatment: The human hepatocellular carcinoma (HepG2) cell line was acquired from ATCC, Manassas, USA (HB-8065), and maintained according to the manufacturer’s ATCC protocol. Cell culture conditions included a medium consisting of Dulbecco’s modified Eagle’s medium (DMEM, Merck), 10% fetal bovine serum, […], 100 IU/mL penicillin (acquired from ThermoFisher), humidified atmosphere containing 5% of carbon dioxide, temperature of 37 °C. The stock solution of the tested compound was prepared in DMSO (10 mM) and next diluted with buffered phosphate saline (PBS, Merck). Cell membrane damage was examined with the use of a ToxiLight bioassay (Lonza), rendering the manufacturer’s protocol described previously.[42] A culture medium containing 10% Triton X-100 (Merck) was used as the positive control of cell damage, while the negative control contained solely vehicle. After incubating for 5 min, the luminescence was examined with the plate reader POLARstar Omega (BMG Labtech). The results were expressed as a percentage of the positive control, which was defined as the percentage of dead cells relative to the control sample. Cell viability assay: The viability of cells was examined with the use of the PrestoBlue reagent (ThermoFisher) and protocol provided by the manufacturer. After incubating for 24 h with the examined compounds, one-tenth of the remaining medium volume was mixed with the reagent (PrestoBlue) in a microplate well. Following incubation at 37 °C during 15 min, the fluorescence (EX 530; EM 580 nm) was measured using the plate reader POLARstar Omega, (BMG Labtech). The viability values obtained are presented as a percentage of live cells relative to the DMSO (control sample). The GraphPad program was used to perform the statistical analysis. The mean values with their corresponding coefficient of variation (CV) were reported for all data. The differences between the groups were analyzed using one-way analysis of variance (ANOVA) followed by Dunnett’s multiple comparison tests as post hoc analysis. The statistical significance: p < 0.05.

[1] = as above; type: cell-based, human; details: human, HepG2 cells, 24 h, read-out: viability of cells, MEAN (percentage of control, live cells)
Procedure: as §1

[2] = Brain tissue stability assay; type: in vitro ADME; details: brain homogenate in Tris-HCl buffer
Procedure: (§2) The quantitative HPLC analyses were acquired using Waters Alliance e2695 separations module (Waters, Milford, CT, USA) containing 2998 photodiode array (PDA), a detector (Waters, Milford, CT, USA), and the SpeedROD RP-18e 50–4.6 mm column (Merck, KGaA, Darmstadt, Germany). The temperature of the column was preserved at 30 °C. […] Each sample was injected at a volume of 10 μL in triplicate. […] The stock solutions were mixed with methanol and diluted, resulting in various solutions with concentrations ranging from 1.0 to 0.125 μg/mL. These solutions were then utilized to generate calibration curves by plotting AUC versus concentration in μg/mL. The examined molecules (2 mg) were dissolved in 1 mL of Dulbecco’s phosphate buffered saline (DPBS). The mixture was then continuously agitated at 22 °C for 24 h using a thermoshaker. Following this period, the mixtures were filtered through a cellulose acetate syringe filter (with a pore size of 0.22 μm), moved to a chromatographic vial, and analyzed. To quantify the investigated compounds, the areas beneath their respective peaks on DAD chromatograms were employed. Solubility was calculated using the calibration curves. Chemical stability assay: Stock solution of 16 in DMSO (10 mg/mL) was used. Next, 25 μL of stock solution was mixed with 975 μL of PBS (Dulbecco’s phosphate-buffered saline, Sigma, Poland). […] HPLC analyses were used to quantify the percentage of molecules that remained at each time point relative to the 0 min time point. Brain tissue stability assay: […] Then, 50 μL of the stock solution was combined with 50 μL of ice-cold 50 mM Tris-HCl buffer (pH 7.4) and 150 μL of brain homogenate (suspended in 20 volumes of 50 mM Tris-HCl buffer, ice cold, pH 7.4). The mix was then incubated at 37 °C and quenched at several time points. To terminate the reaction mixture, 250 μL of the appropriate reaction mixture was mixed with 1000 μL of MeCM in the Eppendorf Tube. Following 10 min of shaking (1500 rpm), samples were centrifuged (10 000 rpm, 10 min, 4 °C) and the acquired supernatant was collected. Before conducting HPLC analysis, the supernatant was filtered via a cellulose acetate syringe filter with a pore size of 0.45 μm and then transferred to a chromatographic vial. HPLC analysis was used to determine the percentage of the tested molecule remaining at each time point, relative to the 0 min time point. Plasma stability assay was performed as described previously.[45] Frozen rat plasma (Wistar) was thawed. […] The samples were collected at relative time points. The reaction was terminated by adding 1200 of μL acetonitrile/methanol mixture (50:50, v/v). The samples were centrifuge at 25 000 rpm for 10 min. HPLC analysis was used to determine the percentage of the tested molecule remaining at each time point relative to the 0 min time point. All the experiments were performed in duplicate.

[3] = Chemical stability assay in PBS; type: physicochemical
Procedure: as §2

[4] = Metabolic stability in rat liver microsomes; type: in vitro ADME; details: assayed at 10^–7 M
Procedure: The assay was performed by Eurofins Discovery, a contract research organization, according to standard methodology, described previously.[46]

BV-2 microglia cells = assay: Evaluation of microglia morphology by fluorescence microscopy (MitoTracker) after LPS; type: cell-based, mouse; details: 10 μM pretreatment 1 h, LPS 18 h

Q: With Cc1c(OCc2ccccc2)cccc1N1CCN(CCOC(=O)CCCN)CC1.Cl.Cl [Compound 16, 1-(2-((4-Ammoniobutanoyl)oxy)ethyl)-4-(3-(benzyloxy)-2-methylphenyl)piperazin-1-ium Dichloride] as the compound, how does the “reduction of HepG2 viability” value (HepG2 cells) read?
A: not significant reduction of viability

Q: What about the viability at 24 h, 1 µM ([1]; HepG2, 1 µM) of the same compound?
A: 102%

Q: And the viability at 24 h, 10 µM ([1]; HepG2, 10 µM)?
A: 104%

Q: What about the viability at 24 h, 50 µM ([1]; HepG2, 50 µM) of the same compound?
A: 102%

Q: What about the viability at 24 h, 100 µM ([1]; HepG2, 100 µM) of the same compound?
A: 14%

Q: And the “% compound remaining (brain homogenate)” value ([2]; 0 min)?
A: 100 ± 0.3%

Q: What about the “% compound remaining (brain homogenate)” value ([2]; 15 min) of the same compound?
A: 97.81 ± 2.1%

Q: And the “% compound remaining (brain homogenate)” value ([2]; 30 min)?
A: 92.56 ± 1.9%

Q: What about the “% compound remaining (brain homogenate)” value ([2]; 60 min) of the same compound?
A: 87.12 ± 3.2%

Q: And the “% compound remaining (brain homogenate)” value ([2]; 120 min)?
A: 49.73 ± 2.4%

Q: What about the “% compound remaining (brain homogenate)” value ([2]; 240 min) of the same compound?
A: 25.34 ± 1.6%

Q: And the “% compound remaining, rt” value ([3]; 0 min)?
A: 100 ± 0.2%

Q: And the “% compound remaining, rt” value ([3]; 15 min)?
A: 98.43 ± 1.8%

Q: And the “% compound remaining, rt” value ([3]; 30 min)?
A: 94.23 ± 1.8%

Q: What about the “% compound remaining, rt” value ([3]; 60 min) of the same compound?
A: 92.46 ± 2.2%

Q: And the “% compound remaining, rt” value ([3]; 120 min)?
A: 86.63 ± 2.3%

Q: And the “% compound remaining, rt” value ([3]; 240 min)?
A: 62.21 ± 1.7%

Q: What about the “rat liver microsomes Clint” value [4] of the same compound?
A: <115.5 (μL/min)/mg

Q: And the “rat liver microsomes t0,5” value [4]?
A: >60 min

Q: What about the “mitochondrial membrane potential / morphology of microglia exposed to LPS” value (BV-2 microglia cells) of the same compound?
A: protected the microglia from LPS insult
